# What was measured:
# [1] = system: thrombin generation in tissue factor triggered plasma; test: Manual determination of thrombin generation in plasma (subsampling method) and calculated prothrombinase activity; assay type: biochemical, human
# Description: Manual determination of thrombin generation in plasma: Extrinsic pathway: To 480 μL defibrinated plasma were added: 172 μL buffer A which contains the substrate at concentrations between 0 to 2000 μM and 20 μL of a 54 μM phospholipid solution (final concentration: 1.5 μM). After incubation of 4 min at 37° C., 24 μL tissue factor (undiluted) was added. Thrombin formation started at zero time by adding 24 μL of a 0.5 M CaCl2 solution (final concentration: 16.67 mM). At regular time intervals of 12 s samples of 10 μL were subsampled as described above. From the amidolytic activities thus obtained, the thrombin generation curve can be drawn. […] Intrinsic pathway: To 480 μL defibrinated plasma were added: 168 μL buffer A which contains the substrate at concentrations between 0 to 1000 μM and 48 μL Actin FS (undiluted). This mixture was intensively mixed and incubated for 4 min at 37° C. Thrombin generation was started at zero time by adding 24 μL of a 0.5 M CaCl2 solution (final concentration: 16.67 mM).
# Influence of the substrate on the prothrombinase-complex: With the obtained decay constants and from the curves obtained by the subsampling method we calculated the course of prothrombin conversion and the course of prothrombinase concentration.
# Manual determination of thrombin generation in plasma: Extrinsic pathway: To 480 μL defibrinated plasma were added: 172 μL buffer A which contained the substrate at concentrations between 0 to 2000 μM and 20 μL of a 54 μM phospholipid solution (final concentration: 1.5 μM). After incubation for 4 min at 37° C., 24 μL tissue factor (undiluted) was added. Thrombin formation started at zero time by adding 24 μL of a 0.5 M CaCl2 solution (final concentration: 16.67 mM). At regular time intervals of 12 s samples of 10 μL were subsampled as described above. From the amidolytic activities thus obtained, the thrombin generation curve can be drawn.
# Influence of the substrate on the prothrombinase-compzex: With the obtained decay constants and from the curves obtained by the subsampling method we calculated the course of prothrombin conversion and the course of prothrombinase concentration.
# [2] = system: thrombin formation in plasma; test: Continuous registration of the thrombin generation curve (continuous assay of ETP); assay type: biochemical, human; conditions: 25 mM hydroxylamine
# Description: Continuous registration of the thrombin generation curve: Extrinsic pathway: In a polystyrene microcuvette were added: 400 μL defibrinated plasma, 20 μL of a 45 μM phospholipid solution (final concentration: 1.5 μM), 140 μL of buffer A which contains the substrate at the desired final concentration (100-2000 μM). After 4 min of incubation at 37° C., 20 μL tissue factor (undiluted) was added. Thrombin generation was started by adding 20 μL of a 0.5 M CaCl2 solution (final concentration: 16.67 mM); during the measurement the temperature was kept at 37° C. The optical density was monitored at 405 nm. From the obtained optical density curve, the first derivative was calculated. […] The optical density was measured at 37° C. at 405 nm during 20 min.
# Continuous registration of the thrombin generation curve: Extrinsic pathway: In a polystyrene microcuvette were added: 400 μL defibrinated plasma, 20 μL of a 45 μM phospholipid solution (final concentration: 1.5 μM) and 140 μL of buffer A which contains the substrate at the desired final concentration (500 μM). […] The optical density was monitored at 405 nm. From the obtained optical density curve, the first derivative was calculated giving the enzyme concentration during the measurement. […] The optical density was measured at 37° C. at 405 nm during 20 min. […] The optical density was measured at 37° C. at 405 nm during 25 min.
# euglobulin thrombin = biological target: T1, euglobulin thrombin (Homo sapiens, UniProt P00734); test: Decay constants of thrombin in plasma; assay type: biochemical; conditions: [S] 25 mM in plasma
# T1 construct: The euglobulin thrombin fraction was prepared from defibrinated human plasma; from tissue; host or cells: defibrinated human plasma (euglobulin fraction, acid precipitation, method of Josso and Prou-Wartelle)
# Description: (§1) To this mixture was added 10 μL of a thrombin preparation to achieve a final concentration of 100 nM. At regular time intervals (5-10 s) 10 μL samples were subsampled into 490 μL buffer B which contained 200 μM of S2238 to determine thrombin activity. After 2 min the reaction was stopped by adding 300 μL 1M citric acid. The moment of sampling and stopping were recorded on a personal computer with pushbutton-equipped pipettes. The optical density was then read at 405 nm and the obtained amidolytic activities were used to calculate the decay constants. The obtained decay constant is the sum of the decay constants of the reaction of thrombin with antithrombin III (k1) and α2 -macroglobulin (k2).
# as §1, with “Decay constants of thrombin in plasma: To 120 μL defibrinated plasma was added: 50 μL of buffer A which contained the substances to be tested. To” for “To”, “was” for “was then”
compound,measurement,setting,value
"NO [hydroxylamine, reference compound]","k2,M : k2 determined by the subsampling method",[1]; [S] 25 mM in plasma,0.057 min⁻¹
same,influence on the prothrombinase complex / coagulation cascade,[1]; calculated from decay constants and manual thrombin generation curves,did not influence the coagulation cascade
same,AA: amidolytic activity (maximum),[1]; hydroxylamine 25 mM,383.88 mOD/min
same,PT: prothrombinase concentration (maximum),[1]; hydroxylamine 25 mM,1227 mOD/min
same,T: thrombin concentration (maximum),[1]; hydroxylamine 25 mM,378.03 mOD/min
same,t: time point at which maximum of amidolytic activity is achieved,[1]; hydroxylamine 25 mM,72 s
same,t: time point at which maximum of prothrombinase concentration is achieved,[1]; hydroxylamine 25 mM,36 s
same,t: time point at which maximum of thrombin concentration is achieved,[1]; hydroxylamine 25 mM,72 s
same,residual amidolytic activity of the α2 M-thrombin complex,[2],substantially reduced
same,"(k1,corr) = k1,corr /1.856",euglobulin thrombin,0.585 min⁻¹
same,"k1,corr : k1 after correcting for k2,M and 0.170",euglobulin thrombin,1.085 min⁻¹
same,k1 : AT-III dependent decay of thrombin,euglobulin thrombin,1.253 min⁻¹
same,k2 : α2 M dependent decay of thrombin,euglobulin thrombin,0.059 min⁻¹
same,koverall,euglobulin thrombin,1.312 min⁻¹
same,t1/2,euglobulin thrombin,31.70 s

# Source: patent publication US6207399A, “Methods of determining endogenous thrombin potential (ETP) and thrombin substrates for use in said methods” (Hemker; Hendrik Coenraad, priority 1995, dated 2001)
